Reference: patent US10561681B2, “Antimetastatic 2H-selenopheno[3,2-h]chromenes, synthesis thereof, and methods of using same agents” (Latvian Institute of Organic Synthesis, priority 2016, dated 2020)
Values joined by “and” are separate entries in the source; they are usually repeats but may differ in a detail not shown here. Identical values can stand only once. Like-named read-outs stand apart in the source and are kept apart here.

Assays:
Assay type in all cases: cell-based
[1] = test system: A549 (human lung carcinoma); experiment: In vitro cytotoxicity, MTT test; details: read-out: Cytotoxicity IC50, A549
Protocol: (§1) Anticancer activity of selenopheno[h]chromenes was tested in vitro using cytotoxicity assay. […] About 2-9·10^4 cells/mL (depending on line nature) were placed in 96-well plates immediately after compounds were added to the wells. Untreated cells were used as a control. The plates were incubated for 72 h, 37° C., 5% CO2. The number of surviving cells was determined using 3-(4,5-dimethylthiazol-2-yl)-2,5-diphenyltetrazolinium bromide (MTT). MTT-test: after incubating culture medium was removed and 200 μL fresh medium with 10 mM HEPES was added in each well of the plate, than 20 μL MTT (2 mg/mL in HBSS) was added. After incubation (3 hr, 37° C., 5% CO2), the medium with MTT was removed and 200 μL DMSO were added at once to each sample. The samples were tested at 540 nm on Anthos HT II photometer.

CCL-8 (mouse sarcoma) = experiment: In vitro cytotoxicity, MTT test; details: 72 h, read-out: Cytotoxicity IC50, CCL-8
Protocol: as §1

[2] = test system: HT-1080 (human fibrosarcoma); experiment: In vitro cytotoxicity, MTT test; details: read-out: Cytotoxicity IC50, HT-1080
Protocol: as §1

[3] = test system: HepG2 (human hepatocellular carcinoma); experiment: In vitro cytotoxicity, MTT test; details: read-out: Cytotoxicity IC50, HepG2
Protocol: as §1

[4] = test system: MCF-7 (human breast adenocarcinoma, estrogen-positive); experiment: In vitro cytotoxicity, MTT test; details: read-out: Cytotoxicity IC50, MCF-7
Protocol: as §1

[5] = test system: MDA-MB-435s (human melanoma); experiment: In vitro cytotoxicity, MTT test; details: 72 h, read-out: Cytotoxicity IC50, MDA-MB-435s
Protocol: as §1

[6] = test system: MES-SA (human uterus sarcoma); experiment: In vitro cytotoxicity, MTT test; details: 72 h, read-out: Cytotoxicity IC50, MES-SA
Protocol: as §1

MG-22A (mouse hepatoma) = experiment: In vitro cytotoxicity, MTT test; details: 72 h, read-out: Cytotoxicity IC50, MG-22A
Protocol: as §1

[7] = test system: SH-SY5Y (human neuroblastoma); experiment: In vitro cytotoxicity, MTT test; details: 72 h, read-out: Cytotoxicity IC50, SHSY5Y
Protocol: as §1

[8] = Basal cytotoxicity test, Neutral Red Uptake (NRU) assay; details: for LD50 at 24 h: mouse, po, acute oral LD50 calculated from 3T3 NRU IC50 by regression formula, read-out: Basal cytotoxicity Estimated* LD50; for IC50 at 24 h: normal mouse embryo fibroblasts, read-out: Cytotoxicity IC50, 3T3
Protocol: In parallel, the borderline concentration relevant to the highest tolerated dose has been determined for each compound using the NIH 3T3 (mouse embryo fibroblasts) cell line and the basal cytotoxicity obtained has then been used to predict the starting doses for in vivo acute oral LD50 values in rodents.
the Neutral Red Uptake (NRU) assay was performed according to the standard protocol of Stokes modified by the NICEATM-ECVAM validation study. The NRU cytotoxicity assay procedure is based on the ability of viable cells to incorporate and bind Neutral Red, a supravitally dye. Balb/c 3T3 (Mouse Swiss Albino embryo fibroblast) cells (9000 cells/well) were placed into 96-well plates for 24 h in Dulbecco's modified Eagle's (DMEM) medium containing 5% fetal bovine serum. The cells were then exposed to the test compounds over a range of […] concentrations (1000, 316, 100, 31, 10, 3, 1 μg/ml) for 24 h. Untreated cells were used as a control. After 24 h, the medium was removed from all plates. Then, 250 μL of Neutral Red solution were added (0.05 mg/mL NR in DMEM 24 h pre-incubated at 37° C. and then filtered before use through 0.22-μm syringe filter). Plates were incubated for 3 h and then cells were washed three times with PBS. The dye within viable cells was released by extraction with a mixture of acetic acid, ethanol and water (1:50:49). Absorbance of Neutral Red was measured using a spectrophotometer multiplate reader (TECAN, Infinite M1000) at 540 nm. The percentage of living cells was calculated using the formula: OD (treated cells)*100/OD (control cells). The IC50 values were calculated using the programme Graph Pad Prism® 3.0.
Data from the in vitro tests were used for estimating the starting dose for acute oral systemic toxicity tests in rodents. […] The value is recalculated to mg/kg and compounds are evaluated in accordance with four toxicity categories: category 1: LD50≤5 mg/kg (highly toxic); category 2: 5<LD50≤50 mg/kg (moderately toxic); category 3: 50<LD50≤300 mg/kg (slightly toxic); category 4: 300<LD50≤2 000 mg/kg (practically non-toxic).

[9] = Homo sapiens, A549, 72 h, MTT, 72 h

| SMILES | IC50 [1, 9] [µM] | IC50 ([2]; HT-1080, MTT, 72 h) [µM] | IC50 ([3]; HepG2, MTT, 72 h) [µM] | IC50 ([4]; MCF7, MTT, 72 h) [µM] | IC50 ([5]; MTT) [µM] | IC50 ([6]; MTT) [µM] | IC50 (MG-22A (mouse hepatoma); MTT) [µM] | IC50 ([7]; Homo sapiens, SH-SY5Y, MTT) [µM] | LD50 at 24 h [8] | IC50 at 24 h [8] [µM] | IC50 (CCL-8 (mouse sarcoma); MTT) [µM] | other results |
| --- | --- | --- | --- | --- | --- | --- | --- | --- | --- | --- | --- | --- |
| COC1(c2[se]c3c(ccc4cc(C(=O)O)c(=O)oc43)c2Br)CCCCC1 [Compound I-12, 7-Bromo-8-(1-methoxycyclohexyl)-2-oxo-2H-selenopheno[3,2-h]chromene-3-carboxylic acid] | 61 ± 1 | 51 ± 2 | 97 ± 7 | 141 ± 10 | 127 ± 12 | > 206 | > 206 | 193 ± 2 | 300 µmol/kg and 134 mg/kg | 213 ± 7 |  | IC50 (CCL-8 (mouse sarcoma)): 134 ± 6 µM |
| COC(=O)c1cc2ccc3c(Br)c(C4=CCCC4)[se]c3c2oc1=O [Compound I-2, Methyl 7-bromo-8-(cyclopent-1-en-1-yl)-2-oxo-2H-selenopheno[3,2-h]chromene-3-carboxylate] | 122 ± 8 | 110 ± 12 | 197 ± 24 | 281 ± 12 | 142 ± 12 | 155 ± 3 | > 235 | > 117 | 500 µmol/kg and 194 mg/kg | > 235 | 82 ± 8 |  |
| Cl.O=C(O)c1cc2ccc3c(Br)c(CN4CCCCC4)[se]c3c2oc1=O [Compound I-13, 7-Bromo-2-oxo-8-(piperidin-1-ylmethyl)-2H-selenopheno[3,2-h]chromene-3-carboxylic acid hydrochloride] |  |  |  |  |  |  |  |  | 4300 µmol/kg and 2180 mg/kg | 197 ± 8 |  | IC50 ([1]; Homo sapiens, A549, 72 h): 129 ± 6 µM; IC50 (CCL-8 (mouse sarcoma)): > 122 µM; IC50 ([2]; HT-1080, 72 h): 197 ± 3 µM; IC50 ([3]; HepG2, 72 h): > 197 µM; IC50 ([4]; MCF7, 72 h): 119 ± 2 µM; IC50 [5]: 182 ± 11 µM; IC50 [6]: 103 ± 9 µM; IC50 (MG-22A (mouse hepatoma)): 49 ± 6 µM; IC50 ([7]; Homo sapiens, SH-SY5Y): > 197 µM |
| COC(=O)c1cc2ccc3c(Br)c(CN4CCCCC4)[se]c3c2oc1=O [Compound I-8, Methyl 7-bromo-2-oxo-8-(piperidin-1-ylmethyl)-2H-selenopheno[3,2-h]chromene-3-carboxylate] | 115 ± 8 | > 192 | 181 ± 9 | 165 ± 5 | > 192 | > 117 | 46 ± 3 | > 192 | > 3900 µmol/kg and > 2000 mg/kg | 54 ± 3 | > 122 |  |
| O=C(c1cc2ccc3c(Br)c(C4=CCCCC4)[se]c3c2oc1=O)N1CCOCC1 [Compound I-20, 7-Bromo-8-(cyclohex-1-en-1-yl)-3-(morpholine-1-carbonyl)-2H-selenopheno[3,2-h]chromen-2-one] | 38 ± 5 | 92 ± 12 | 63 ± 6 | 81 ± 7 | 13 ± 1 | 61 ± 4 | 117 ± 7 | > 117 | 3000 µmol/kg and 1600 mg/kg | > 192 | 126 ± 4 |  |
| COC(=O)c1cc2ccc3c(Br)c(C(C)(C)O)[se]c3c2oc1=O [Compound I-1, Methyl 7-bromo-8-(2-hydroxypropan-2-yl)-2-oxo-2H-selenopheno[3,2-h]chromene-3-carboxylate] | 196 ± 9 | 225 ± 11 | > 117 | 221 ± 13 | 95 ± 8 | 95 ± 9 | > 122 | 32 | > 6000 µmol/kg and > 2660 mg/kg | 225 ± 11 | > 225 |  |
| CCCCCCCCCCOC(=O)c1cc2ccc3c(Br)c(C4(O)CCCCC4)[se]c3c2oc1=O [Compound I-7] | > 164 | > 164 | 151 ± 6 | 48 ± 13 | 152 ± 9 | > 164 | > 164 | > 117 | > 3300 µmol/kg and > 2000 mg/kg | > 164 | 81 ± 2 |  |
| COC(=O)c1cc2ccc3c(Br)c(C4(O)CCCCC4)[se]c3c2oc1=O [Compound I-3, Methyl 7-bromo-8-(1-hydroxycyclohexyl)-2-oxo-2H-selenopheno[3,2-h]chromene-3-carboxylate] | ≤ 19 | 27 ± 1 | > 117 | 29 ± 2 | 64 ± 6 | 66 ± 3 | 33 ± 6 | ≤ 19 | > 5600 µmol/kg | 207 ± 9 | 186 ± 9 | IC50 ([1]; MTT, 72 h): 19 ± 2 µM; IC50 ([7]; MTT): 19 ± 3 µM |
| COCCN(CCOC)C(=O)c1cc2ccc3c(Br)c(C4=CCCCC4)[se]c3c2oc1=O [Compound I-21, 7-Bromo-8-(cyclohex-1-en-1-yl)-N,N-bis(2-methoxyethyl)-2-oxo-2H-selenopheno[3,2-h]chromene-3-carboxamide] | 61 ± 6 | 51 ± 1 | 51 ± 7 | 92 ± 12 | 76 ± 4 | 73 ± 3 | 46 ± 6 | 139 ± 6 | 700 µmol/kg and 384 mg/kg | 131 ± 7 | 100 ± 8 |  |
| CC(C)CCC[C@@H](C)[C@H]1CC[C@H]2[C@@H]3CC=C4C[C@@H](OC(=O)c5cc6ccc7c(Br)c(C8=CCCCC8)[se]c7c6oc5=O)CC[C@]4(C)[C@H]3CC[C@]12C [Compound I-17, (3S,8S,9S,10R,13R,14S,17R)-10,13-Dimethyl-17-((R)-6-methylheptan-2-yl)-2,3,4,7,8,9,10,11,12,13,14,15,16,17-tetradecahydro-1H-cyclopenta[a]phenanthren-3-yl-7-bromo-8-(cyclohex-1-en-1-yl)-2-oxo-2H-selenopheno[3,2-h]chromene-3-carboxylate] | > 117 | > 117 | > 117 | > 117 |  | > 117 |  | > 117 | 3000 µmol/kg and 2450 mg/kg | > 117 |  |  |
| CCCCCCCCOC(=O)c1cc2ccc3c(Br)c(C4=CCCCC4)[se]c3c2oc1=O [Compound I-16, Octyl 7-bromo-8-(cyclohex-1-en-1-yl)-2-oxo-2H-selenopheno[3,2-h]chromene-3-carboxylate] | > 117 | > 117 | > 177 | > 117 | > 122 | > 117 | > 122 | > 117 | 876 mg/kg | > 177 |  |  |
